Here are results for four compounds from patent US9624254B2, “Hydroxysafflor yellow pharmaceutical salts” (ZHEJIANG YONGNING PHARMACEUTICAL CO LTD, priority 2013, dated 2017).

Several values for one entry are separate records, joined by “and”; a condition that tells them apart may be missing. Equal entries are not always repeated. Where two headings read alike, the source gives them in different places.

One series relates to blood viscosity. The class given is in vivo. To be noted: rabbit. The method, then:
7. Effect on blood viscosity: Rabbit was treated intravenously, once per day, for 5 days. 2 hours after the last dose, blood was taken from heart and anticoagulated, and tested with blood rheometer directly.

In a further series the test system is acute hypoxia. Put plainly: Acute cerebral anoxia, survival in a closed vessel. The format is in vivo, mouse. The following applies: Kunming mice. The method, then: 5. Effect on acute cerebral anoxia: A study was carried out using Kunming mice […]. The animals were kept in an environment lacking oxygen. The survival duration was recorded to examine whether resistance to acute hypoxia was increased after animals given the medicine. […] Animals were kept in the container until respiration ceased.

For series [1], the system named is acute myocardial infarction among rats. As to the kind of experiment: Rat acute myocardial infarction model (coronary ligature): arrhythmia ranking, infarcted area, myocardial enzymes. The format is in vivo. The method, then:
Test method • 1. Preparation of rat acute myocardial infarction model: Intraperitoneal anesthesia was performed with 3% sodium pentobarbital, 45 mg/kg. Right femoral artery and vein catheter were inserted for blood pressure monitoring and intravenous administration, respectively. Artificial mechanical ventilation was given through tracheal intubation at a rate of 60 times/min, and with a ventilation volume of about 10 ml/kg. Electrocardiogram (ECG) was recorded by placing needle electrode in limbs. A longitudinal skin incision was made approximately 0.5 cm to left sternal border, followed by blunt dissection of the subcutaneous tissue. The pectoralis major, pectoralis minor, and the intercostal muscle were dissected, ligated and cut with scissors successively. The chest was open from the fourth intercostal space along the left sternal border where apical beat is most significant. Cut the pericardium open with scissors, and clamp the pericardium to bilateral chest wall with hemostatic forceps, to form a pericardial bed and expose vessels on the surface of the left ventricle. 6-0 silk suture was threaded through superficial layer of myocardium (i.e. the anterior descending coronary artery) about 2 mm under the left auricle. […] Arrhythmia ranking: The severity of arrhythmia which occurred within 30 min after coronary ligature was scored. • 3. Myocardial enzyme test: At the end of test, 2 ml of venous blood was taken, and centrifuged under 4° C. and 4000/min for 5 min. The supernatant was taken for myocardial enzyme test. Test items: LDH, AKP, CK. • 4. Measurement of myocardial infarcted area: 4 h after coronary ligature, puncture was performed to the anterior wall of the left ventricle, and carbon ink was injected. Then the animal was sacrificed, and the heart was removed and cleaned with normal saline. Blood and non-myocardial tissue such as vessel and fat were removed. Moisture was dried with absorbent paper. Then the heart was weighed. The heart was cut into sections of about 2 mm from cardiac apex to the base of heart parallel. The perfusion area (perfused with ink) and area at high risk of ischemia (without ink perfusion). […] The nonobstructive heart muscle stained was cut off with scissors, and the non-stained infarcted heart muscle was weighed, to calculate percentage of infarcted heart muscle in the area of heart muscle at risk by weight (weight of infarction area/weight of area at risk*100%). Statistical Analysis:
All the test data was expressed as mean±standard deviation, statistical test was done with analysis of variance (ANOVA), and the difference was considered significant if P<0.05.

The test system of a further series is cerebral blood flow. The class given is in vivo, dog. From the text: 4. Effect on cerebral blood flow of dog: Beagles were used as the study animal. After the dog was anesthetized with sodium pentobarbital, external jugular vein, internal jugular vein and vertebral artery were isolated surgically. The external jugular vein was ligated. Flow probes were placed in internal jugular vein and vertebral artery. Two times of the total blood flow recorded by both probes represented blood supply of the whole brain. At the end of the study, the brain was removed and weighed to calculate blood flow per 100 g of brain tissue.

The subject of series [2] is acute cerebral ischemia model (MCAO). The format is in vivo, rat.
Series [3] concerns platelet adhered to the silk. The format is in vivo, rat. The method, then:
(§1) 6. Anti-platelet aggregation: The study included two stages, instrument testing and in vivo test. […] 4 ml of blood was taken from heart 2 hours after the last dose. The blood was centrifuged under a low speed to obtain platelet-rich […]; and centrifuged under a high speed to obtain […] lacking platelet. Adenosine diphosphate (ADP) and platelet-activating factor (PAF) were chosen as the platelet aggregation inducing agent. And platelet aggregometer was used for testing. […] 2) In vivo method: An arteriovenous short was created with latex tubing in rats. There was surgical silk mounted in the latex tubing. Using characteristics of platelet adhesion, the short was opened to allow blood to flow trans-arteriovenously through the latex tubing. And then silk was removed and weighed. The weight of platelet adhered to the silk was calculated by subtracting the dry weight.

The format of series [4] is physicochemical. To be noted: for Content: calculated as hydroxysafflor yellow A.
Series [5] has as its system permeability of cerebral vessel. The class given is in vivo, rat. The method, then:
3. Effect on vasopermeability in rats: Rats were injected intravenously, once per day, for 7 days. After the last dose, rats were anesthetized, injected intravenously with Evans blue 50 mg/kg. After 5 minutes, bilateral common carotid arteries were ligated. The animals were sacrificed by decapitation after 3 hours. The brain was removed, weighed and immersed in formamide solution. It was placed in an incubator at 45° C. for 72 h. During this period, Evans blue in the cerebral vessel could be leached out into formamide solution. Testing the amount of Evans blue leached out into the formamide solution with spectrophotometer could indicate permeability of cerebral vessel.

Series [6] relates to Willis arteries from beagles (cerebral vascular ring). Further details: species or system dog. The text has this:
(§2) 1. Selectivity of isolated heart and cerebral vessel from dogs: During this study, Willis arteries and coronary ring from beagles were mounted on ex vivo vascular measuring device. Adjust the tension sensor, and add 10-6 mol/L phenylephrine into the liquid in bath cup, so as to maintain vascular tension. […] Calculate vasoconstriction or vasodilation change value.

The subject of series [7] is coronary ring from beagles (cardiac vascular ring). The arrangement: species or system dog.
Source text: as §2

For series [8], the system named is platelet aggregation induced by ADP. As to the kind of experiment: Anti-platelet aggregation, instrument testing (platelet aggregometer), ADP. The following applies: rabbit, intravenous once per day for 5 days, blood 2 hours after last dose, three doses. The format is in vivo. The method, then: as §1
Series [9] relates to platelet aggregation induced by PAF. Put plainly: Anti-platelet aggregation, instrument testing (platelet aggregometer), PAF. The following applies: rabbit, intravenous once per day for 5 days, blood 2 hours after last dose, three doses. The class given is in vivo. Here is the method:
as §1

Setting [10] is: serum, rats, 40 mg/kg intravenously, end of test.
Where [11] appears, read: beagles, intravenous, medium and high dose.
Where [12] appears, read: 10-6 mol/L phenylephrine tension, 10 mg/ml added every 5 min, 4-5 times.

With `O=C(/C=C/c1ccc(O)cc1)C1=C(O)C(O)(C2OC(CO)C(O)C(O)C2O)C([O][Ca][O]C2=C(C3OC(CO)C(O)C(O)C3O)C(=O)C(C(=O)/C=C/c3ccc(O)cc3)=C(O)C2(O)C2OC(CO)C(O)C(O)C2O)=C(C2OC(CO)C(O)C(O)C2O)C1=O` (centres unmarked) [Calcium hydroxysafflor yellow A], the “Blood viscosity effect compared with nimodipine positive control (in words)” value in the series on blood viscosity (in vivo) was “superior to the positive control group”. Moreover, the “Blood viscosity, low shear, medium shear and high shear (in words)” value in the series on blood viscosity (in vivo, iv) is given as “decreased as dose increased”. The Survival duration in the series with acute hypoxia (high dose) is recorded as 37 min. For the same compound, the Survival duration in the series on acute hypoxia (low dose) was determined as 35 min. This compound also registered a Survival duration with acute hypoxia (medium dose) of 38 min. Besides, the “Extent of myocardial infarction compared to hydroxysafflor yellow for injection (in words)” value in series [1] (rat, in vivo) was “better efficacy in terms of reducing the extent of myocardial infarction”. Further, in series [1] (rat, in vivo, iv), the “Effect on serum LDH and CK (in words)” value is given as “more significant efficacy”; the “Effect on severity of arrhythmia (in words)” value is “more effective”. Further, in series [1] (rat, in vivo, iv, 40 mg/kg), the “AKP (IU/L)” value amounted to 152 ± 24 IU/L, the Arrhythmia ranking is on record as 1.46 ± 0.3, the “CK (IU/L)” value was 2139 ± 594 IU/L and the “Infarction area” value is 0.11 ± 0.04 g. In series [1] (rat, in vivo, iv, 40 mg/kg), the “Infarction rate (%)” value came to 29 ± 6 % and the “LDH (IU/L)” value came out at 463 ± 65 IU/L. Besides, in the series with cerebral blood flow (dog, in vivo, iv), the “Cerebral blood flow (in words)” value was “significantly increase blood flow” and the “Time for which blood flow was maintained” value is “about 15 min”. In addition, the “Area of cerebral infarction” value in series [2] (rat, in vivo, iv) was 41.3% and 25.7% and 21.6%. Also, the “Weight of platelet adhered on the silk” value in series [3] (rat, in vivo) was 13.9 ± 1.54 mg and 10.26 ± 1.15 mg and 8.73 ± 1.79 mg. The same compound registered a Total purity in [4] (Accelerated 0 month) of 1.2%. In addition, in [4] (Accelerated 1 month), the Total purity was determined as 1.4% and the Content was 95.6%. Further, in series [4] (Accelerated 2 months), the Total purity was 1.9% and the Content is reported as 95.1%. In series [4] (Accelerated 3 months), the Total purity was found to be 2.6% and the Content is on record as 94.5%. For the same compound, the “Evans blue leached out from cerebral vessel (in words)” value in [5] (rat, in vivo, iv) is on record as “very significant effect of reducing Evans blue being leached out from cerebral vessel”. For the same compound, the “Dilation on cerebral vascular ring” value in series [6] worked out at 69.7%. Besides, the “Dilation on cardiac vascular ring” value in [7] came to 37.1%.
For the compound `O=C(/C=C/c1ccc(O)cc1)C1=C(O)C(O)(C2OC(CO)C(O)C(O)C2O)C([O][Mg][O]C2=C(C3OC(CO)C(O)C(O)C3O)C(=O)C(C(=O)/C=C/c3ccc(O)cc3)=C(O)C2(O)C2OC(CO)C(O)C(O)C2O)=C(C2OC(CO)C(O)C(O)C2O)C1=O` (centres unmarked) [Magnesium hydroxysafflor yellow A], the Total purity in series [4] (Accelerated 0 month) is recorded as 1.0%; in series [4] (Accelerated 1 month) it was 1.3%; in [4] (Accelerated 2 months), 1.8%; in series [4] (Accelerated 3 months) it was 2.4%. For the same compound, the Content in series [4] (Accelerated 0 month) was 97.4%; in series [4] (Accelerated 1 month), 97.0%; in series [4] (Accelerated 2 months), 96.4%; in series [4] (Accelerated 3 months) it was 95.8%.
Turning to `COCCOC(=O)C1=C(C)NC(C)=C(C(=O)OC(C)C)C1c1cccc([N+](=O)[O-])c1` (centres unmarked) [nimodipine, reference compound], in series [2] (SD rats, positive group, 24 h after MCAO), the “Area of cerebral infarction” value worked out at 15.7%.
On to Potassium hydroxysafflor yellow A, for which the “Blood viscosity effect compared with nimodipine positive control (in words)” value in the series on blood viscosity (high dose groups) is given as “superior to the positive control group”. Besides, the “Blood viscosity, low shear, medium shear and high shear (in words)” value in the series on blood viscosity (intravenous once per day for 5 days, compared to solvent control group) was “decreased as dose increased”. Further, in series [8], the “Effect against platelet aggregation induced by ADP (in words)” value is “very good anti-platelet aggregation effect”. Also, the Survival duration in the series with acute hypoxia (high dose) came to 36 min; in the series on acute hypoxia (low dose), 36 min; in the series on acute hypoxia (medium dose), 37 min. Besides, the “Extent of myocardial infarction compared to hydroxysafflor yellow for injection (in words)” value in series [1] (rats) is “better efficacy in terms of reducing the extent of myocardial infarction”. Also, the “Infarction area” value in [1] (rats, 40 mg/kg intravenously, 4 h after coronary ligature, NBT staining, mean±SD) worked out at 0.10 ± 0.02 g. For the same compound, the “Infarction rate (%)” value in [1] (rats, 40 mg/kg intravenously, weight of infarction area/weight of area at risk*100%) is 26 ± 9 %. In series [1] (rats, 40 mg/kg intravenously, within 30 min after coronary ligature, mean±SD, n=8), this compound displayed an Arrhythmia ranking of 1.38 ± 0.5. Besides, the “Effect on serum LDH and CK (in words)” value in series [1] (rats, given intravenously) is reported as “more significant efficacy”. Further, in [1] (rats, given intravenously, after coronary ligature), the “Effect on severity of arrhythmia (in words)” value is “more effective”. The “AKP (IU/L)” value in series [1] (setting [10]) was determined as 144 ± 19 IU/L. For the same compound, the “CK (IU/L)” value in [1] (setting [10]) was found to be 2203 ± 530 IU/L. Moreover, the “LDH (IU/L)” value in series [1] (setting [10]) was 451 ± 78 IU/L. In addition, the “Cerebral blood flow (in words)” value in the series with cerebral blood flow (setting [11]) is recorded as “significantly increase blood flow”. For the same compound, the “Time for which blood flow was maintained” value in the series with cerebral blood flow (setting [11]) is “about 15 min”. The “Area of cerebral infarction” value in series [2] (rat, in vivo, iv) is 38.2% and 27.6% and 21.9%. Besides, the “Weight of platelet adhered on the silk” value stood at 8.91 ± 1.34 mg in [3] (rats, arteriovenous short, high dose); 13.6 ± 1.89 mg in series [3] (rats, arteriovenous short, low dose); 9.90 ± 1.53 mg in [3] (rats, arteriovenous short, medium dose). In [9], the “Effect against platelet aggregation induced by PAF (in words)” value is listed as “very good anti-platelet aggregation effect”. In addition, the “Evans blue leached out from cerebral vessel (in words)” value in [5] (rats, intravenous once per day for 7 days, high and medium dose groups) was “very significant effect of reducing Evans blue being leached out from cerebral vessel”. Besides, the “Dilation on cerebral vascular ring” value in series [6] (setting [12]) came to 73.1%. Also, the “Dilation on cardiac vascular ring” value in series [7] (setting [12]) was 31.6%.
